Structures can show the parent of a compound that is named as a salt.
Target: T1, PD-1/PD-L1 (Homo sapiens, UniProt Q9NZQ7)
T1 construct: Recombinant human PD-L1 protein (19-238) with a His-tag at the C-terminus; purchased AcroBiosystems PD1-H5229 (PD-L1); PD1-H5257 (PD-1)
Experiment: PD-1/PD-L1 homogenous time-resolved fluorescence (HTRF) binding assay
Experimental: Resolved Fluorescence (HTRF) Binding Assay
The assays were conducted in a standard black 384-well polystyrene plate with a final volume of 20 μL. Inhibitors were first serially diluted in DMSO and then added to the plate wells before the addition of other reaction components. The final concentration of DMSO in the assay was 1%. The assays were carried out at 25° C. in the PBS buffer (pH 7.4) with 0.05% Tween-20 and 0.1% BSA. Recombinant human PD-L1 protein (19-238) with a His-tag at the C-terminus was purchased from AcroBiosy stems (PD1-H5229). Recombinant human PD-1 protein (25-167) with Fc tag at the C-terminus was also purchased from AcroBiosystems (PD1-H5257). PD-L1 and PD-1 proteins were diluted in the assay buffer and 10 μL was added to the plate well. Plates were centrifuged and proteins were preincubated with inhibitors for 40 min. The incubation was followed by the addition of 10 μL of HTRF detection buffer supplemented with Europium cryptate-labeled anti-human IgG (PerkinElmer-AD0212) specific for Fc and anti-His antibody conjugated to SureLight®-Allophycocyanin (APC, PerkinElmer-AD0059H). After centrifugation, the plate was incubated at 25° C. for 60 min. Before reading on a PHERAstar FS plate reader (665 nm/620 nm ratio). Final concentrations in the assay were […] PD1, 10 nM PD-L1, 1 nM europium anti-human IgG and 20 nM anti-His-Allophycocyanin. IC50 determination was performed by fitting the curve of percent control activity versus the log of the inhibitor concentration using the GraphPad Prism 5.0 software.

T1 sequence (Q9NZQ7 19-238): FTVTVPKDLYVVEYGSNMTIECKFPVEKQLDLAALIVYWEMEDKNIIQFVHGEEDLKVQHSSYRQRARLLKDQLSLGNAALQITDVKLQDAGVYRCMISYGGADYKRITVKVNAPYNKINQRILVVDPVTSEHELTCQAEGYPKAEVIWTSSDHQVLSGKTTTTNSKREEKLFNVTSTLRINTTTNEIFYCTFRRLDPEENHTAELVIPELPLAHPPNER

Row | IC50 (Table 6, class symbols) | IC50 (Table 6, numeric values) | SMILES
1 | 0.1 to 10 nM | – | Cc1c(-c2ccccc2)cccc1-c1nc2cc(CN[C@@H](Cc3ccc(O)cc3)C(=O)O)c(OC(F)F)cc2o1 [Example 32, ((6-(difluoromethoxy)-2-(2-methyl-[1,1′-biphenyl]-3-yl)benzo[d]oxazol-5-yl)methyl)-L-tyrosine hydrochloride]
2 | 0.1 to 10 nM | – | Cc1c(-c2ccccc2)cccc1-c1nc2cc(CN[C@@H](C)C(=O)O)c(OC(F)F)cc2o1 [Example 33, ((6-(difluoromethoxy)-2-(2-methyl-[1,1′-biphenyl]-3-yl)benzo[d]oxazol-5-yl)methyl)-L-alanine]
3 | 10 to 100 nM | – | Cc1c(-c2ccccc2)cccc1-c1nc2cc(CN[C@H](C)C(=O)O)c(OC(F)F)cc2o1 [Example 34, ((6-(difluoromethoxy)-2-(2-methyl-[1,1′-biphenyl]-3-yl)benzo[d]oxazol-5-yl)methyl)-D-alanine]
4 | 0.1 to 10 nM | – | Cc1c(-c2ccccc2)cccc1-c1nc2cc(CNCC(=O)O)c(OC(F)F)cc2o1 [Example 35, ((6-(difluoromethoxy)-2-(2-methyl-[1,1′-biphenyl]-3-yl)benzo[d]oxazol-5-yl)methyl)glycine]
5 | 10 to 100 nM | – | Cc1c(-c2ccccc2)cccc1-c1nc2cc(CN3CCC[C@@H]3C(=O)O)c(OC(F)F)cc2o1 [Example 37, ((6-(difluoromethoxy)-2-(2-methyl-[1,1′-biphenyl]-3-yl)benzo[d]oxazol-5-yl)methyl)-D-proline]
6 | 0.1 to 10 nM | – | Cc1c(-c2ccccc2)cccc1-c1nc2cc(CN3CCCCC3CO)c(OC(F)F)cc2o1 (stereo not drawn) [Example 38, (1-((6-(difluoromethoxy)-2-(2-methyl-[1,1′-biphenyl]-3-yl)benzo[d]oxazol-5-yl)methyl)piperidin-2-yl)methanol]
7 | 0.1 to 10 nM | – | CC[C@H](NCc1cc2nc(-c3cccc(-c4ccccc4)c3C)oc2cc1OC(F)F)C(=O)O [Example 40, (S)-2-(((6-(difluoromethoxy)-2-(2-methyl-[1,1′-biphenyl]-3-yl)benzo[d]oxazol-5-yl)methyl)amino)butanoic acid]
8 | 10 to 100 nM | – | CC[C@@H](NCc1cc2nc(-c3cccc(-c4ccccc4)c3C)oc2cc1OC(F)F)C(=O)O [Example 41, (R)-2-(((6-(difluoromethoxy)-2-(2-methyl-[1,1′-biphenyl]-3-yl)benzo[d]oxazol-5-yl)methyl)amino)butanoic acid]
9 | – | 3.4 nM | Cc1c(-c2ccccc2)cccc1-c1nc2cc(CN[C@H](CO)C(=O)O)c(OC(F)F)cc2o1 [Example 42, ((6-(difluoromethoxy)-2-(2-methyl-[1,1′-biphenyl]-3-yl)benzo[d]oxazol-5-yl)methyl)-D-serine]
10 | – | 1.8 nM | Cc1c(-c2ccccc2)cccc1-c1nc2cc(CN[C@@H](CO)C(=O)O)c(OC(F)F)cc2o1 [Example 43, ((6-(difluoromethoxy)-2-(2-methyl-[1,1′-biphenyl]-3-yl)benzo[d]oxazol-5-yl)methyl)-L-serine]
11 | 0.1 to 10 nM | – | N#Cc1c(-c2ccccc2)cccc1-c1nc2cc(CN3CCC[C@H]3C(=O)O)c(OC(F)F)cc2o1 [Example 44, ((2-(2-cyano-[1,1′-biphenyl]-3-yl)-6-(difluoromethoxy)benzo[d]oxazol-5-yl)methyl)-L-proline]
12 | 10 to 100 nM | – | N#Cc1ccccc1-c1cccc(-c2nc3cc(CN4CCC[C@H]4C(=O)O)c(OC(F)F)cc3o2)c1C#N [Example 45, ((2-(2,2′-dicyano-[1,1′-biphenyl]-3-yl)-6-(difluoromethoxy)benzo[d]oxazol-5-yl)methyl)-L-proline]
13 | 0.1 to 10 nM | – | Cc1c(-c2ccccc2)cccc1-c1nc2cc(CN3CCCC3(C)C(=O)O)c(OC(F)F)cc2o1 (stereo not drawn) [Example 46, 1-((6-(difluoromethoxy)-2-(2-methyl-[1,1′-biphenyl]-3-yl)benzo[d]oxazol-5-yl)methyl)-2-methylpyrrolidine-2-carboxylic acid]
14 | 0.1 to 10 nM | – | Cc1c(-c2ccc3c(c2)OCCO3)cccc1-c1nc2cc(CN3CCC[C@H]3C(=O)O)c(OC(F)F)cc2o1 [Example 47, ((6-(difluoromethoxy)-2-(3-(2,3-dihydrobenzo[b][1,4]dioxin-6-yl)-2-methylphenyl)benzo[d]oxazol-5-yl)methyl)-L-proline]
15 | 0.1 to 10 nM | – | Cc1c(-c2ccccc2)cccc1-c1nc2cc(CN3CCC3C(=O)O)c(OC(F)F)cc2o1 (stereo not drawn) [Example 48, 1-((6-(difluoromethoxy)-2-(2-methyl-[1,1′-biphenyl]-3-yl)benzo[d]oxazol-5-yl)methyl)azetidine-2-carboxylic acid]
16 | 0.1 to 10 nM | – | Cc1c(-c2ccccc2)cccc1-c1nc2cc(CN3CCCC3(C)C(=O)O)c(OC(F)F)cc2o1 (stereo not drawn) [Example 50, 1-((6-(difluoromethoxy)-2-(2-methyl-[1,1′-biphenyl]-3-yl)benzo[d]oxazol-5-yl)methyl)-2-methylpyrrolidine-2-carboxylic acid]
17 | 10 to 100 nM | – | Cc1c(-c2nc3cc(CN4CCC[C@H]4C(=O)O)c(OC(F)F)cc3o2)cccc1-c1ccccc1C#N [Example 51, ((2-(2′-cyano-2-methyl-[1,1′-biphenyl]-3-yl)-6-(difluoromethoxy)benzo[d]oxazol-5-yl)methyl)proline]
18 | 10 to 100 nM | – | Cc1c(-c2ccccc2)cccc1-c1nc2cc(CN3COC[C@H]3C(=O)O)c(OC(F)F)cc2o1 [Example 53, (S)-3-((6-(difluoromethoxy)-2-(2-methyl-[1,1′-biphenyl]-3-yl)benzo[d]oxazol-5-yl)methyl)oxazolidine-4-carboxylic acid]
19 | 10 to 100 nM | – | Cc1c(-c2ccccc2)cccc1-c1nc2cc(CN3CCCC[C@H]3C(=O)O)c(OCC(F)(F)F)cc2o1 [Example 54, (S)-1-((2-(2-methyl-[1,1′-biphenyl]-3-yl)-6-(2,2,2-trifluoroethoxy)benzo[d]oxazol-5-yl)methyl)piperidine-2-carboxylic acid]
20 | 10 to 100 nM | – | Cc1c(-c2ccccc2)cccc1-c1nc2cc(CN3CCCCC3C(=O)O)c(OCC(F)F)cc2o1 (stereo not drawn) [Example 55, 1-((6-(2,2-difluoroethoxy)-2-(2-methyl-[1,1′-biphenyl]-3-yl)benzo[d]oxazol-5-yl)methyl)piperidine-2-carboxylic acid]
21 | 10 to 100 nM | – | Cc1c(-c2ccccc2)cccc1-c1nc2cc(CN[C@H](C)C(=O)O)c(OCC(F)(F)F)cc2o1 [Example 56, ((2-(2-methyl-[1,1′-biphenyl]-3-yl)-6-(2,2,2-trifluoroethoxy)benzo[d]oxazol-5-yl)methyl)-D-alanine]
22 | 10 to 100 nM | – | N#Cc1c(-c2ccccc2)cccc1-c1nc2cc(CN3CCOC[C@H]3C(=O)O)c(OCC(F)(F)F)cc2o1 [Example 57, (S)-4-((2-(2-cyano-[1,1′-biphenyl]-3-yl)-6-(2,2,2-trifluoroethoxy)benzo[d]oxazol-5-yl)methyl)morpholine-3-carboxylic acid]
23 | 10 to 100 nM | – | Cc1c(-c2ccccc2)cccc1-c1nc2cc(CN3CCOC[C@H]3C(=O)O)c(OCC(F)(F)F)cc2o1 [Example 58, (S)-4-((2-(2-methyl-[1,1′-biphenyl]-3-yl)-6-(2,2,2-trifluoroethoxy)benzo[d]oxazol-5-yl)methyl)morpholine-3-carboxylic acid]
24 | 10 to 100 nM | – | Cc1c(-c2ccccc2)cccc1-c1nc2cc(CN[C@@H](C)C(=O)O)c(OCC(F)(F)F)cc2o1 [Example 59, ((2-(2-methyl-[1,1′-biphenyl]-3-yl)-6-(2,2,2-trifluoroethoxy)benzo[d]oxazol-5-yl)methyl)-L-alanine]
25 | 10 to 100 nM | – | Cc1c(-c2ccccc2)cccc1-c1nc2cc(CN3CCC[C@H]3C(=O)O)c(OCC(F)(F)F)cc2o1 [Example 60, ((2-(2-methyl-[1,1′-biphenyl]-3-yl)-6-(2,2,2-trifluoroethoxy)benzo[d]oxazol-5-yl)methyl)-L-proline]
26 | 10 to 100 nM | – | Cc1c(-c2ccccc2)cccc1-c1nc2cc(CN3CCCC3(C)C(=O)O)c(OCC(F)(F)F)cc2o1 (stereo not drawn) [Example 61, 2-methyl-1-((2-(2-methyl-[1,1′-biphenyl]-3-yl)-6-(2,2,2-trifluoroethoxy)benzo[d]oxazol-5-yl)methyl)pyrrolidine-2-carboxylic acid]
27 | 0.1 to 10 nM | – | Cc1c(-c2ccccc2)cccc1-c1nc2cc(CN3CCC[C@H]3C(=O)O)c(OC(F)(F)F)cc2o1 [Example 63, ((2-(2-methyl-[1,1′-biphenyl]-3-yl)-6-(trifluoromethoxy)benzo[d]oxazol-5-yl)methyl)-L-proline]
28 | 0.1 to 10 nM | – | Cc1c(-c2ccccc2)cccc1-c1nc2cc(CN3CCC[C@H]3C(=O)O)c(OS(C)(=O)=O)cc2o1 [Example 64, ((2-(2-methyl-[1,1′-biphenyl]-3-yl)-6-((methylsulfonyl)oxy)benzo[d]oxazol-5-yl)methyl)-L-proline]
29 | – | 5 nM | Cc1c(-c2ccccc2)cccc1-c1nc2cc(CN3CCC[C@H]3C(=O)O)c([S+](C)[O-])cc2o1 (stereo partly drawn) [Example 65, ((2-(2-methyl-[1,1′-biphenyl]-3-yl)-6-(methylsulfinyl)benzo[d]oxazol-5-yl)methyl)-L-proline]
30 | 0.1 to 10 nM | – | Cc1c(-c2ccccc2)cccc1-c1nc2cc(CN3CCC[C@H]3C(=O)O)c(S(C)(=O)=O)cc2o1 [Example 66, ((2-(2-methyl-[1,1′-biphenyl]-3-yl)-6-(methylsulfonyl)benzo[d]oxazol-5-yl)methyl)-L-proline]

Source: patent US20220041583A1, “IMMUNOMODULATORS, COMPOSITIONS AND METHODS THERE OF” (BETTA PHARMACEUTICALS CO., LTD, priority 2018, published 2022)
